The text below walks through data of article PMC9603010 (ACS Bio & Med Chem Au, 2022).

Counter-ions that a name gives are not always drawn.

In one data set the test system is HEK293T cells. The following applies: 48 h, multiple concentrations.
The test system of data set [1] is SARS-CoV-2 (USA-WA1/2020). It counts as cell-based.

As for `NC(CO)C(=O)NNCc1ccc(O)c(O)c1O` (stereo not drawn) [benserazide, reference compound], in the data set on HEK293T cells, the “impact on cell viability” value is “without significant impact on cell viability”.

Regarding `O=C(O[C@@H]1Cc2c(O)cc(O)cc2O[C@@H]1c1cc(O)c(O)c(O)c1)c1cc(O)c(O)c(O)c1` [epigallocatechin gallate], the “impact on cell viability” value with HEK293T cells is on record as “without significant impact on cell viability”.

Regarding `c1ccc2c(c1)OCC(C1=NCCN1)O2` (stereo not drawn) [idazoxan hydrochloride, reference compound], the “reduction of the number of infected cells compared to vehicle” value in data set [1] was “more than 90%”.

Consider `c1ccc2c(c1)OCC(C1=NCCN1)O2` (stereo not drawn) [idazoxan, reference compound], for which the “impact on cell viability” value in the data set on HEK293T cells was “without significant impact on cell viability”.

`COc1c(-c2coc3cc4c(cc3c2=O)CC(O)C(C)(C)O4)ccc2c1C=CC(C)(C)O2` (stereo not drawn) [mundulone]: the “impact on cell viability” value in the data set on HEK293T cells is given as “without significant impact on cell viability”.

Turning to `C=C1C(=O)O[C@H]2[C@H]1CC/C(C)=C/CC[C@@]1(C)O[C@@H]21` [parthenolide], the “impact on cell viability” value in the data set with HEK293T cells is listed as “without significant impact on cell viability”.
